Assays:
[1] = GLP 14-day extended single SC dose toxicity study in rats; conditions: Sprague Dawley, rat, plasma, sc, 10 mg/kg
Procedure: In a GLP 14-day extended single SC dose toxicity study in rats, doses of 0 (PBS), 10, 25 and 75 mg/kg were evaluated. Animals were necropsied on Study Day 2 and Day 14 (also referred to as Recovery Day 13) post-dosing.
A non-GLP dose range study was performed in the dog in order to determine an MTD. Single SC doses of 7.5, 15 and 20 mg/kg were evaluated.

in vivo [2] = conditions: for half-life: male, cynomolgus monkey, plasma; for mean terminal half-life: monkey
Procedure: Two male cynomolgus monkeys were administered 3 treatments in a crossover study design (Calvert Laboratories, Inc, Scott Township, PA; QPS, LLC, Newark, DE, USA). In treatment 1, RE104 was administered as an IV bolus dose at 1 mg/kg. In treatment 2, RE104 was administered as an SC injection at 0.5 mg/kg, and in treatment 3, RE104 was administered PO at 5 mg/kg, with all dosing formulations prepared in phosphate buffered saline.

[3] = Plasma protein binding, animal plasma; type: in vitro ADME; conditions: animal plasma proteins
[4] = Plasma protein binding, human plasma; type: in vitro ADME; conditions: human plasma proteins, 1 to 20 PM; read-out: plasma protein binding (bound)
[5] = Metabolite profiling in monkey plasma after SC RE104; type: in vivo, cynomolgus monkey; conditions: pooled plasma 0 to 12 hours post dose, SC 0.5 mg/kg RE104
Source text: Blood samples were centrifuged to obtain plasma.

healthy females = test: Phase 1 FIH study: modified Drug Effect Questionnaire (DEQ-High); type: in vivo, human; conditions: plasma concentration below 40 ng/mL
Procedure: (§1) The study was a double-blind, randomized, placebo-controlled Phase 1 single ascending dose study in up to 6 cohorts in healthy females. Eligibility was assessed during a screening period of up to 28 days prior to enrollment. For the treatment period, subjects were admitted to the clinical research unit (CRU) one day prior to the dosing (Day −1). On Day 1, all subjects will received the assigned SC dose of RE104 HCl or placebo in a fed state (after domiciling overnight and consuming a planned evening meal on Day −1 and morning meal on Day 1 while at the CRU). Subjects were allowed to select snacks from a planned menu from 4 hours following dosing. Subjects were discharged from the clinic on Day 2 (−24 hours post-dose) after all required study procedures were completed and if deemed medically fit. Subjects returned to the clinic on Day 10 (±2 days) for a follow up visit.
The Drug Effect Questionnaire (DEQ) Feel/High is widely used in studies of acute subjective response to a variety of substances, to assess two key aspects of subjective experience: (1) the strength of substance effects and (2) desirability of substance effects (Morean et al., 2013). The modified DEQ assesses the extent to which subjects (1) feel any substance effect(s) and (2) feel high. This version of the DEQ includes the following items: “Do you feel a drug effect right now?” (FEEL); “Are you high right now?” (HIGH). FIG. 2 sets out the modified DEQ that was used.
The modified DEQ was used as an 11-point numeric rating scale (0-10) administered by a qualified staff member. The subjects were asked to verbally respond to indicate how strongly they feel the drug effect and how high they feel on the scale of 0-10 after being administered the study drug (Kollltveit et al., 2020).

[6] = Phase 1 FIH study: plasma pharmacokinetics (LC-MS/MS); type: in vivo; conditions: female, plasma, human; for half-life: read-out: t1/2, mean (converted)
Procedure: as §1
The concentrations of RE104 and isoprocin in plasma were determined using a validated Liquid chromatography tandem mass spectrometry (LC-MS/MS) assay.

in vivo [7] = conditions: male, beagle, dog, plasma, po, 5 mg/kg
Procedure: Two consecutive doses were separated by z7 days. Plasma samples were analyzed using an LC-MS/MS method (lower limit of quantification of 1.00 ng/mL for both analytes).
Pharmacokinetic parameters were calculated using Phoenix WinNonlin, version 6.3 or 8.2 (Certara, Princeton, NJ, USA).
For dog PK assessments, approximately 0.5 mL of blood was collected via superficial vein before dose and at 5 (for IV and SC injections only), 15, and 30 minutes and 1, 2, 4, 8, 16, 24, 48, and 72 hours post dose into tubes containing K2EDTA with 10 mM Dichlorvos as the anticoagulant and stabilizer, respectively.

[8] = in PBS; cited from earlier work
humans = conditions: human, cited from earlier work
[9] = tested on: primary human hepatocytes; test: Metabolite profiling in plated human hepatocytes; conditions: 1 μM, pooled plated human hepatocytes
Procedure: The formation of metabolites was monitored at 0, 4, 8, and 24 hours, respectively. […] Samples for positive and negative controls were determined at 0, 8, and 24 hours, respectively. RE104 and its metabolites were identified and profiled using ultrahigh-performance liquid chromatography (Supplemental Methods).
The quenched samples were pipetting mixed, harvested, and stored at −70° C. or lower until liquid chromatography tandem mass spectrometry analysis. […] The plated human hepatocyte incubation samples were frozen at ≤−70° C. or lower immediately and thawed to room temperature before sample processing. A 500-μL aliquot of each sample was transferred to matrix tubes (1.4 mL), followed by the addition of 500-μL mixed solvent acetonitrile:methanol:for mic acid (50:50:0.1, v/v/v). The resulting mixtures were vortex mixed for 2 minutes and centrifuged at 3000 rpm for 10 minutes. The supernatants from the triplicate incubations were pooled to generate the pooled samples (1.5 mL/each) for the LC-MS analysis.
For all metabolite identification and profiling experiments, RE104 and its metabolites were identified and profiled by UHPLC in a Shimadzu Nexeran™ UHPLC system coupled with a high-resolution mass spectrometer SCIEX 6600 Triple TOF®. Mass spectrometry analysis was carried out by using an electrospray ionization source operating in positive ion mode with full-scan TOF MS and MS/MS modes. […]

[10] = Metabolite profiling in rat plasma after SC RE104; conditions: 0- to 10-hour pooled plasma, SC 10, 25, or 75 mg/kg RE104
Procedure: Metabolite profiling and identification was performed using rat, dog, and nonhuman primate plasma samples after a single SC injection of RE104 (QPS, LLC, Newark, DE, USA).
Blood samples were centrifuged to obtain plasma. Plasma samples for rat and dog studies were pooled across time points to 1 sample per dose and sex separately; plasma samples from monkeys were pooled to generate 1 combined sample.
Metabolite profiling and identificationFor experiments performed in rats, blood samples were collected before dose and at 15 minutes, 30 minutes, and 1, 2, 4, 6, and 10 hours after dose. Blood samples from dogs were collected before dose and at 5 minutes, 30 minutes, and 1, 2, 4, 8, 12, and 24 hours after dose. Monkey blood samples were collected before dose and at 5 minutes, 15 minutes, 30 minutes, and 1, 1.5, 2, 4, 8, and 12 hours after dose. […]
The percent of RE104 and its metabolites in relation to the total area of compound-related material was obtained by integration of the extracted ion chromatogram peaks on the full-scan mass-chromatograms. The percent of peak area for each component relative to the total peak area was determined by using the following formula: Component % peak area=(peak area of component ×100%/total integrated peak area of compound-related material).

[11] = target: human recombinant 5-HT2A receptors (Homo sapiens, UniProt P28223); test: 5-HT2A agonist radioligand binding assay ([125I]DOI)
human recombinant 5-HT2A receptors, sequence (P28223 whole entry): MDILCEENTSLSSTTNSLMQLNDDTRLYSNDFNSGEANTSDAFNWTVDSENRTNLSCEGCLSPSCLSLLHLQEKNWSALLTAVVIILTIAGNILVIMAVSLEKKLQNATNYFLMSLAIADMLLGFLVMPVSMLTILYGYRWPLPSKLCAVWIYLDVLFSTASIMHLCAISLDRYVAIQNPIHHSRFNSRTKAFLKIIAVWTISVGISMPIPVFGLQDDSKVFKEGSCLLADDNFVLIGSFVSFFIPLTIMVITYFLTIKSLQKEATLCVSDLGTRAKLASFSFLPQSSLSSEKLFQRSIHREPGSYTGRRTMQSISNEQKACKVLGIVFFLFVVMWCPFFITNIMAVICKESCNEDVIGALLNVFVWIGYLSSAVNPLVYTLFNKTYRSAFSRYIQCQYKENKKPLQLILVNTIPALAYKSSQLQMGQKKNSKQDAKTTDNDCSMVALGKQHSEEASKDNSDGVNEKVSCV
Procedure: (§2) Increasing concentrations of RE104 were incubated with 0.2 nM [^125I]DOI in CHO cell cultures expressing human recombinant 5-HT2B receptors.
(§3) Radioligand concentration was measured by scintillation counting; compound binding was calculated as percent inhibition of the binding of [^125I]DOI. In agonist activity assays, test concentrations of RE104 were incubated with HEK-293 cells expressing human recombinant 5-HT2A receptors; IP1 production was detected using homogeneous time-resolved fluorescence. Activation was calculated as a percentage of the response to the positive control (10 μM 5-HT).
(§4) Inhibition constants were calculated by using the Cheng-Prusoff equation Ki=IC50/(1+L/KD), where L=radioligand concentration and KD=radioligand affinity for the receptor (determined with a Scatchard plot). In the functional activity assay test concentrations of RE104 were 10 nM, 30 nM, 100 nM, 300 nM, 1 μM, 3 μM, 10 μM, and 30 μM. EC50 and IC50 values were determined by nonlinear regression analysis of the concentration-response curves generated with mean replicate values using Hill equation curve fitting.

[12] = target: human recombinant 5-HT2B receptors (Homo sapiens, UniProt P41595); test: 5-HT2B agonist radioligand binding assay ([125I]DOI)
human recombinant 5-HT2B receptors, sequence (P41595 whole entry): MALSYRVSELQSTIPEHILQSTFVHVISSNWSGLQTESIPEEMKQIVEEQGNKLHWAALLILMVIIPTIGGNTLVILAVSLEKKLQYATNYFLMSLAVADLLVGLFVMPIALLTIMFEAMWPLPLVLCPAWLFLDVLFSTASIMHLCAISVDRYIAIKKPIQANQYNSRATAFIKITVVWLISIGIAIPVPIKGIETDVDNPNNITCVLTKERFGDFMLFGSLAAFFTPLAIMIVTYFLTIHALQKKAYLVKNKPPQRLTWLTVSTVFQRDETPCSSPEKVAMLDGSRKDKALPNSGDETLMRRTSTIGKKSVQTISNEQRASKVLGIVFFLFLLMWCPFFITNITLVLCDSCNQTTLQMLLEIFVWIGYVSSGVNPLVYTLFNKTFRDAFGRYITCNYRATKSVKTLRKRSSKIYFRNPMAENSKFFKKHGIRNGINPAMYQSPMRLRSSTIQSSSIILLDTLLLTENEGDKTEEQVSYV
Procedure: as §2, §3, §4

[13] = GLP 14-day extended single SC dose toxicity study in dogs; conditions: beagle, dog, plasma, sc, 8 mg/kg
[14] = Rat PK after single IV or SC RE104 HCl 2 mg/kg (Example 1)

Work on `CC(C)N(CCc1c[nH]c2cccc(O)c12)C(C)C` [4-OH-DiPT, 3-(2-diisopropylamino-ethyl)-1H-indol-4-ol] yielded an AUC(0-t) [1] of 1230 ng·h/mL, a Cmax [1] of 542 ng/mL and a half-life (in vivo [2]; iv, 1 mg/kg) of 0.631 h. The half-life (in vivo [2]; sc, 0.5 mg/kg) was 0.95 h, the mean terminal half-life (in vivo [2]; RE104 IV dosing) was 0.63 h and the mean terminal half-life (in vivo [2]; RE104 SC dosing) was 0.95 h. For the same molecule, the fraction unbound [3] was 0.4 to 0.7, the fraction unbound [4] was 0.07 to 0.2 and the “share of the total peak area” value [5] was 4.42%. For the same molecule, the “mean DEQ-High score” value (healthy females) was no more than 2, the Cmax ([6]; RE104 dose 5.5 mg SC (n = 6)) was 18 ng/mL and the Tmax ([6]; RE104 dose 5.5 mg SC (n = 6)) was 1.12 h. It also gave a half-life ([6]; RE104 dose 5.5 mg SC (n = 6)) of 3.42 h, a Cmax ([6]; RE104 dose 11 mg SC (n = 6)) of 60 ng/mL and a Tmax ([6]; RE104 dose 11 mg SC (n = 6)) of 1.21 h. It also gave a half-life ([6]; RE104 dose 11 mg SC (n = 6)) of 3.55 h, a Cmax ([6]; RE104 dose 22 mg SC (n = 6)) of 77 ng/mL and a Tmax ([6]; RE104 dose 22 mg SC (n = 6)) of 1.42 h. It also gave a half-life ([6]; RE104 dose 22 mg SC (n = 6)) of 3.27 h, a Cmax ([6]; RE104 dose 33 mg SC (n = 9)) of 137 ng/mL and a Tmax ([6]; RE104 dose 33 mg SC (n = 9)) of 1.07 h. The half-life ([6]; RE104 dose 33 mg SC (n = 9)) was 2.79 h, the Cmax ([6]; RE104 dose 38 mg SC (n = 6)) was 124 ng/mL and the Tmax ([6]; RE104 dose 38 mg SC (n = 6)) was 1.08 h. The half-life ([6]; RE104 dose 38 mg SC (n = 6)) was 2.79 h, the Cmax ([6]; RE104 dose 44 mg SC (n = 3)) was 275 ng/mL and the Tmax ([6]; RE104 dose 44 mg SC (n = 3)) was 1.25 h. The half-life ([6]; RE104 dose 44 mg SC (n = 3)) was 3.76 h, the AUC(0-t) (in vivo [7]) was 103 ng·h/mL and the Cmax (in vivo [7]) was 21.4 ng/mL. The Tmax (in vivo [7]) was 4 h, the solubility [8] was less than 2000 µg/mL and the “onset of effect (mild physical awareness)” value (humans; 10 mg orally (Shulgin)) was no more than 1 h. The recovery (humans; 20 mg oral dose (Shulgin)) was no more than 3 h, the onset of effect (humans; 20 mg orally (Shulgin)) was no more than 15 min and the metabolites formed [9] was “primarily producing O-glucuronide and negligible amounts of other metabolites”. For the same molecule, the “share of total metabolites in plasma” value [10] was greater than 67%, the IC50 ([11]; read-out: IC50 at 5-HT2A, agonist radioligand assay) was 150 nM and the Ki ([11]; read-out: binding Ki at the 5-HT2A receptor, radioligand inhibition binding, HEK-293 cells) was 120 nM. It also gave an IC50 [12] of 42 nM, an AUC(0-t) [13] of 1010 ng·h/mL and a Cmax [13] of 360 ng/mL. For the same molecule, the “elimination half-life (t1/2) in plasma” value ([14]; RE104 HCl 2 mg/kg SC) was 0.678 h and the half-life ([14]; plasma, iv, 2 mg/kg) was 0.426 h.
